Assay results reported in patent US20240200022A1, “METHODS AND SYSTEMS FOR THE CULTURE OF CELLS AT LIQUID-LIQUID INTERFACES” (QUEEN MARY UNIVERSITY OF LONDON, priority 2017, published 2024).

Legend:
Format in all cases: cell-based, human
[1] = system: HaCaT cells; experiment: HaCaT cell spreading assay on oil interfaces (cell area from phalloidin staining); settings: HaCaT on BSA interfaces, Novec 7500+PFBC; blebbistatin 10 μM, Y27632 10 μM, Cytochalasin D 1 μM
Procedure: Generation of fluorinated oil droplet substrates for cell culture. Thin glass slides (25×60 mm, VWR) were plasma oxidized for 10 minutes and placed into a staining jar. Toluene (1 mL, Sigma-Aldrich) and 30 μL trichloro (1H, 1H, 2H, 2H-perfluorooctyl) silane (Sigma-Aldrich) were added in a glass vial. The staining jar containing the glass slides and the glass vial with the silane solution were placed into a desiccator under vacuum for 5 min and then left under reduced atmosphere but sealed overnight. The fluorinated glass slides were cut into chips (1×1 cm) and placed into a 24 well plate. After sterilisation with 70% ethanol, the wells were washed (twice) and then filled with 2 mL PBS (pH 7.4, except when specified, for the adsorption of poly(L-lysine) at pH 10.5). 100 tL droplets of fluorinated oil (Novec 7500) with fluorinated surfactant (2,3,4,5,6-Pentafluorobenzoyl chloride) at specified concentrations (see specific experiments, but often 0.01 mg/mL) were deposited on top of the glass slide and formed a fluorinated oil droplet spreading over the entire substrate. […] For the deposition of BSA, a 10 μL BSA solution (100 mg/mL) was added into PBS, to make a final concentration of 1 mg/mL, and incubated for 1 h.
HaCaT keratinocyte cell line culture and seeding. Human keratinocyte HaCaT cells were cultured in DMEM (Thermofisher Scientific) containing 10% foetal bovine serum (FBS, Labtech), 1% L-Glutamine (200 mM) and 1% Penicillin-Streptomycin (5,000 U/mL). […] For cell spreading assays HaCaT cells were harvested and seeded onto fluorinated droplets at a density of 25,000 per well (13,000 per cm^2).
Immuno-fluorescence microscopy and data analysis. Fluorescence microscopy images were acquired with a Leica DMI4000B fluorescence microscopy (CTR4000 lamp; 63×1.25 NA, oil lens; 10×0.3 NA lens; 2.5×0.07 NA lens; DFC300FX camera). […] To determine adhesion cell areas, images were analyzed by thresholding and watershedding fluorescence images of the cytoskeleton (phalloidin stained). […]

[2] = system: MSCs; experiment: MSC culture on fluorinated oils conditioned with culture medium only; settings: after 7 days of culture; no protein nanosheets deposition, conditioning with cell culture medium
Procedure: (§1) Generation of liquid-liquid (FC-40) interfaces for cell culture. 24 well plates were plasma oxidized using a plasma coater (Diener, 100% intensity) for 10 minutes. 500 mL ethanol (VWR chemicals), 10 mL trimethylamine (Sigma-Aldrich) and 10 mL of the desired silane (triethoxy(octyl)silane (Sigma-Aldrich) to prepare interfaces with liquid PDMS, or trichloro (1H, 1H, 2H, 2H-perfluorooctyl) silane (Sigma-Aldrich) for the fluorinated oil) were added into each well. Ethanol was added in between wells to slow down evaporation and parafilm was used to seal the well plate lid. After incubating for 24 h, the wells were washed in a sterile environment with ethanol (twice) and ddH2O (three times). 500 μL FC-40 (Sigma) was added in the fluorophilic 24 well plate to form the bottom liquid layer, 2 mL of MSC growth medium was directly added on the FC-40 layer, 5K cells were seeded in each well.

[3] = system: primary keratinocytes; experiment: Keratinocyte cell sheet formation on flat fluorinated oil interfaces; settings: FAD medium containing ROCK inhibitor, 10 μM; PLL-functionalised fluorinated oil
Excerpt: Keratinocyte culture and seeding.
Immunofluorescence staining and antibodies.
Immuno-fluorescence microscopy and data analysis. Fluorescence microscopy images were acquired with a Leica DMI4000B fluorescence microscopy (CTR4000 lamp; 63×1.25 NA, oil lens; 10×0.3 NA lens; 2.5×0.07 NA lens; DFC300FX camera). Confocal microscopy images were acquired with a Leica TCS SP2 confocal and multiphoton microscope (X-Cite 120 LED lamp; 63×1.40-0.60 NA, oil lens; 10×0.3 NA lens; DFC420C CCD camera). To determine cell densities per mm^2, cell counting was carried out by thresholding and watershedding nuclei images in ImageJ. […] To determine adhesion cell areas, images were analyzed by thresholding and watershedding fluorescence images of the cytoskeleton (phalloidin stained). The area of cell clusters was removed when analysing results.

[4] = system: HaCaT cells; experiment: HaCaT cell proliferation on liquid substrates (Hoechst staining); settings: fluorinated oil supplemented with the surfactant
Procedure: as §1, with “liquid-liquid” for “liquid-liquid (FC-40)”, “[…]” for “mL”, “PDMS” for “PDMS,”, “cover.” for “lid.”, “500 μL FC-40 (Sigma) was added in the fluorophilic 24 well plate to form the bottom liquid layer, 2 mL of MSC growth medium was directly added on the FC-40 layer, 5K cells were seeded in each well.” left out
Hoechst staining and LIVE/DEAD cell viability assay. Cell proliferation was assessed via Hoechst staining. […] Viability of HaCaT cells on fluorinated oil interfaces was quantified by LIVE/DEAD viability/cytotoxicity assay using a kit supplied by Thermofisher Scientific. In brief, HaCaT cells were incubated in DMEM with 2 μM Calcein AM and 4 μM Ethidium homodimer for 30 min. stained cells were imaged using a Leica DM14000 fluorescence microscopy (see below). The percentage of viable cells was calculated by counting the number of green (live) cells and dividing by the total number of cells (including dead cells).
Immuno-fluorescence microscopy and data analysis. […]

Structure (SMILES)	cell spreading on oil [1]	also measured
Cc1ccc2c(c1)C(=O)C1(O)CCN(c3ccccc3)C1=N2 (stereo not drawn) [Blebbistatin, blebbistatin]	slight increase	
CCOC(F)(C(F)(F)C(F)(F)C(F)(F)F)C(F)(C(F)(F)F)C(F)(F)F (stereo not drawn) [Novec 7500, hexane, 3-ethoxy-1,1,1,2,3,4,4,5,5,6,6,6-dodecafluoro-2-(trifluoromethyl)]		MSC proliferation [2]: did not lead to any significant cell proliferation
C[C@@H](N)[C@H]1CC[C@H](C(=O)Nc2ccncc2)CC1 [Y27632]	further decreased	integrity of keratinocyte cell sheets on oil [3]: preserved their integrity
C=C1[C@@H](C)[C@H]2[C@H](Cc3ccccc3)NC(=O)[C@]23[C@H](OC(C)=O)/C=C/[C@@](C)(O)C(=O)[C@@H](C)C/C=C/[C@H]3[C@@H]1O [cytochalasin D, Cytochalasin D]	further decreased	
O=C(Cl)c1c(F)c(F)c(F)c(F)c1F [pentafluorobenzoyl chloride, 2,3,4,5,6-pentafluorobenzoyl chloride]		HaCaT cell proliferation at the surface of fluorinated oil [4]: proliferated
